Assays:
Lipoxygenase 5-LO = experiment: 5-lipoxygenase enzyme assay (5-LO); format: biochemical, human; details: 100 μg/ml
Procedure: For the 5-LO test a crude 5-lipoxygenase enzyme preparation from rat basophilic leukemia cells (RBL-1) is used. The test compound is pre-incubated with the enzyme for 5 minutes in Tris buffer pH 7.2 at room temperature. The reaction is initiated by addition of 15 μM arachidonic acid as substrate and run for an additional 8 minutes after which the reaction is terminated by addition of 70 mM citric acid and levels of 5-HETE are determined by radioimmune assay. […] NDGA (nordihydroguaretic acid) is used as standard reference agent.

[1] = Cytotoxicity, Mediator Release, Con A-Induced (AlamarBlue); format: cell-based, human; details: human, pH 7.4
Procedure: (§1) For the ConA-Induced mediator release/cytotoxicity test, the test compound and/or vehicle is incubated with a suspension of human peripheral blood mononuclear leukocytes (PBMNL, 1×10^5/well) in the presence of Concanavalin A (Con A, 20 μg/ml) in RPMI buffer (pH 7.4) at 37° C. overnight in 5% CO2. AlamarBlue reagent is added and the cells are incubated at 37° C. for 16 hours. Living cells take up AlamarBlue and emit fluorescence. Fluorescence intensity is measured using a SpectraFluor Plus plate reader with excitation at 530 nm and emission at 590 nm. A decrease of 50% or more (50%) in fluorescence intensity relative to the vehicle treated controls indicates significant cytotoxicity. […] Dexamethasone is used as standard reference agent.

[2] = test system: human peripheral blood mononuclear leukocytes (PBMNL); experiment: as above; format: cell-based
Procedure: as §1

[3] = test system: Human T lymphocytic Jurkat cells; experiment: Cytotoxicity, Transcription Response NF-κB; format: cell-based
Procedure: Human T lymphocytic Jurkat cells, transfected with a response element-lacZ reporter in which transcription of the β-galactosidase gene is directed by the binding site for the NF-κB transcription factor, are used. Test compound and/or vehicle are incubated with the cells (1.5×10^6/ml) in the presence of 0.5 μM A23187 and 50 ng/ml PMA (phorbol 12-myristate 13-acetate) in RPMI-1640 pH 7.4 at 37° C. for 4 hours. Test compound-induced β-galactosidase activity is determined by the conversion of FDG (fluorescein di-β-D-galactopyranoside) to fluorescein. Fluorescence intensity is read on SpectroFluor Plus plate reader. […] […] These same concentrations are concurrently applied to a separate group of treated cells and evaluated for possible compound-induced cytotoxicity only if significant stimulation or inhibition is observed (Cat. #361100).

## Cc1coc2c1C[C@H]1[C@H](C)C=CC(=O)[C@]1(C)C2 (relative stereo) [compound 1, 4,4a,5,9-tetrahydro-3,5,8a-trimethylnaptho[2,3-b]furan-8-one]
Lipoxygenase 5-LO
  Inhibition (%) Lipoxygenase 5-LO: 99%
[1]
  IC50: 58.5 µM
[2]
  cytotoxicity observed in mediator release bio-assays (in words): Limited cytotoxicity
[2]; 10 nM
  ANT. Cytotoxicity, Mediator Release, Con A-Induced: −1%
[2]; 0.1 μM
  ANT. Cytotoxicity, Mediator Release, Con A-Induced: 0%
[2]; 1 μM
  ANT. Cytotoxicity, Mediator Release, Con A-Induced: 18%
[2]; 10 μM
  ANT. Cytotoxicity, Mediator Release, Con A-Induced: 35%
[2]; 100 μM
  ANT. Cytotoxicity, Mediator Release, Con A-Induced: 53%
[3]; 0.1 μM
  % RESPONSE Ant, Cytotoxicity, Transcription Response NF-κB: 6%
[3]; 1 μM
  % RESPONSE Ant, Cytotoxicity, Transcription Response NF-κB: 2%
[3]; 10 μM
  % RESPONSE Ant, Cytotoxicity, Transcription Response NF-κB: 2%
[3]; 10 μM, fifth (last) step of the series
  % RESPONSE Ant, Cytotoxicity, Transcription Response NF-κB: 1%
[3]; 100 μM
  % RESPONSE Ant, Cytotoxicity, Transcription Response NF-κB: −3%
[3]; 100 μM, listed as compound of formula 1
  % RESPONSE Ant, Cytotoxicity, Transcription Response NF-κB: no apparent cytotoxicity

From patent US8158165B2, “Preventative treatment and remission of allergic diseases” (CSIR, priority 2006, dated 2012)
